Consider 3 compounds from patent publication US20160207994A1, “MODULATORS OF IL-12 AND/OR IL-23 FOR THE PREVENTION OR TREATMENT OF ALZHEIMER'S DISEASE” (UNIVERSITAT ZURICH, priority 2011, published 2016).

In test [1] the test system is isolated postnatal microglial cell cultures. Briefly: Cytokine gene expression in microglial cell cultures treated with synthetic Aβ1-42. Format: cell-based. The following applies: 22.5 μg/ml. The method, then:
Treatment of isolated postnatal microglial cell cultures with synthetic Aβ1-42 peptides (22.5 μg/ml) induced an almost 6-fold upregulation of IL-12/IL-23p40 after 24 h when compared to unstimulated controls (FIG. 1c).
Since both in human AD samples as well as in transgenic AD mice, microglia and macrophages surrounding Aβ-plaques are reported to be a major source of inflammatory cytokines, we FACS sorted myeloid brain cells of Alzheimer mice in order to better characterize this inflammatory component. Initially, we assessed the expression of IL-12, IL-23 and TNFα in 4-month-old APPPS1 animals and age matched non-transgenic littermates by quantitative PCR of the two cellular fractions obtained (CD45^+ CD11b^+ and CD45^− CD11b^−). […] In contrast, we observed a robust upregulation of IL-12/IL-23p40 and IL-23p19 in the double positive fraction containing microglia and brain macrophages of APPPS1 mice compared to age-matched littermate controls (FIG. 1b). […] To validate a potential link between IL-12 and IL-23 subunits and Aβ-pathology in APPPS1 transgenic animals—besides their impact in models of CNS autoimmune disease, IL-12/IL-23 have not been described to play a role in neurodegenerative diseases so far—as well as to test, whether inhibition of IL-12 and IL-23 subunits could alter disease progression in AD mice, genetic and applied experiments targeting IL-12 and IL-23 subunits in AD mice were performed.

For another test, the system named is IL-12/p40. The following applies: cited from earlier work.
The test system of test [2] is IL-6, IL-1β IL-23 and TNF-a. The following applies: cited from earlier work.

On to “Aβ1-42 peptides: synthetic Aβ1-42 peptides used to stimulate microglial cell cultures”, for which, in test [1], the “upregulation of IL-23p19” value is “substantial upregulation” and the “upregulation of TNFα” value is recorded as “substantial upregulation”. In addition, the “upregulation of IL-12/IL-23p40 over unstimulated controls” value in test [1] (24 h) is about 6 fold.
Regarding `CC[C@@H](O)/C=C/C=C\C[C@@H](O)/C=C/C=C/C=C\[C@@H](O)CCCC(=O)O` [Resolvin E1, (5S, 12R, 18R)-5, 12, 18-trihydroxyicosa-6,8, 10, 14, 16-pentaenoic acid], in the test with IL-12/p40, the “proinflammatory gene expression, i. a. IL-12/p40” value was “dramatically decreases”.
Consider `CC/C=C\C[C@H](O)C(O)/C=C/C=C/C=C\C=C\[C@@H](O)C/C=C\CCC(=O)O` (stereo partly drawn) [Resolvin D2, (7S, 17S)-7, 16, 17-trihydroxydocosa-4,8, 10, 12, 14, 19-hexaenoic acid], for which, in test [2], the “levels of proinflammatory cytokines, namely IL-6, IL-1β IL-23 and TNF-a” value is “drastically reduces”.
